Reference: the supplement of paper PMC5908809

Assays:
[1] = tested on: normal NK cells expanded with K562-aAPC; assay: percent inhibition of viability; higher = more inhibition; conditions: 72 h, IL-2 2.5 ng/mL
Description: (§1)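 Drug sensitivity and resistance testing on K562-aAPC-expanded normal NK cells: 5 concentrations (10-fold steps over a 10,000-fold range), 72 h at 37 °C, viability by CellTiter-Glo normalised to DMSO and benzethonium chloride controls; DSS from the fitted curve.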

DERL-7 (IL-2 2.5 ng/mL) [2] = assay: as above; conditions: 72 h
IMC-1 (IL-2 20 ng/mL) [3] = assay: as above; conditions: 72 h
KAI3 (IL-2 2.5 ng/mL) [4] = assay: as above; conditions: 72 h
KHYG-1 (IL-2 2.5 ng/mL) [5] = assay: as above; conditions: 72 h
NK-92 (IL-2 2.5 ng/mL) [6] = assay: as above; conditions: 72 h
NK-YS (IL-2 2.5 ng/mL) [7] = assay: as above; conditions: 72 h
NKL (IL-2 2.5 ng/mL) [8] = assay: as above; conditions: 72 h
SNK-6 (IL-2 2.5 ng/mL) [9] = assay: as above; conditions: 72 h
YT (IL-2 2.5 ng/mL) [10] = assay: as above; conditions: 72 h
[11] = tested on: normal primary NK cells, pool 1 (3 donors) (IL-2 2.5 ng/mL); assay: as above; conditions: 72 h
[12] = tested on: normal primary NK cells, pool 1 (3 donors), resting (IL-2 0 ng/mL); assay: as above; conditions: 72 h
[13] = tested on: normal primary NK cells, pool 2 (3 donors) (IL-2 2.5 ng/mL); assay: as above; conditions: 72 h
[14] = tested on: normal primary NK cells, pool 3 (3 donors) (IL-2 2.5 ng/mL); assay: as above; conditions: 72 h
[15] = tested on: normal NK cells expanded with K562-aAPC; assay: drug sensitivity score (DSS) (DSS units); higher = more sensitive; extreme values may be limits of the assay; conditions: 72 h; IL-2 2.5 ng/mL
Description: as §1

DERL-7 (IL-2 2.5 ng/mL) [16] = assay: as above; conditions: 72 h
IMC-1 (IL-2 20 ng/mL) [17] = assay: as above; conditions: 72 h
KAI3 (IL-2 2.5 ng/mL) [18] = assay: as above; conditions: 72 h
KHYG-1 (IL-2 2.5 ng/mL) [19] = assay: as above; conditions: 72 h
NK-92 (IL-2 2.5 ng/mL) [20] = assay: as above; conditions: 72 h
NK-YS (IL-2 2.5 ng/mL) [21] = assay: as above; conditions: 72 h
NKL (IL-2 2.5 ng/mL) [22] = assay: as above; conditions: 72 h
SNK-6 (IL-2 2.5 ng/mL) [23] = assay: as above; conditions: 72 h
YT (IL-2 2.5 ng/mL) [24] = assay: as above; conditions: 72 h
[25] = tested on: normal primary NK cells, pool 1 (3 donors) (IL-2 2.5 ng/mL); assay: as above; conditions: 72 h
[26] = tested on: normal primary NK cells, pool 1 (3 donors), resting (IL-2 0 ng/mL); assay: as above; conditions: 72 h
[27] = tested on: normal primary NK cells, pool 2 (3 donors) (IL-2 2.5 ng/mL); assay: as above; conditions: 72 h
[28] = tested on: normal primary NK cells, pool 3 (3 donors) (IL-2 2.5 ng/mL); assay: as above; conditions: 72 h

CN(Cc1cnc2nc(N)nc(N)c2n1)c1ccc(C(=O)N[C@@H](CCC(=O)O)C(=O)O)cc1 [Methotrexate] (max concentration tested 5000 nM)
percent inhibition of viability [%]
Conditions | 0.5 nM | 5 nM | 50 nM | 500 nM | 5000 nM
DERL-7 (IL-2 2.5 ng/mL) [2] | 1.41 | 1.81 | -8.11 | 43.7 | 51.8
IMC-1 (IL-2 20 ng/mL) [3] | -3.79 | 5.79 | 72.9 | 95.6 | 97.3
KAI3 (IL-2 2.5 ng/mL) [4] | 2.61 | 9.06 | 73.1 | 86.4 | 80.6
KHYG-1 (IL-2 2.5 ng/mL) [5] | 1.68 | 0.21 | 95.2 | 104 | 99.2
NK-92 (IL-2 2.5 ng/mL) [6] | -11.1 | 6.17 | 69.3 | 84 | 80.7
NK-YS (IL-2 2.5 ng/mL) [7] | 7.63 | 4.28 | 83.5 | 93 | 87.1
NKL (IL-2 2.5 ng/mL) [8] | -5.39 | -6.27 | 40.4 | 61.1 | 58.2
SNK-6 (IL-2 2.5 ng/mL) [9] | 2.63 | 21 | 76.8 | 81.2 | 82.7
YT (IL-2 2.5 ng/mL) [10] | 5.17 | 3.44 | 63.8 | 54.4 | 48.9
[1] | -3.65 | -3.48 | -3.07 | 34 | 31.4
[11] | -2.85 | -7.99 | 1.44 | -1.93 | -0.84
[12] | -7.95 | -0.85 | 11.4 | 8.67 | 18.2
[13] | -8.41 | -4.79 | -9.59 | -5.9 | -3.72
[14] | -11.3 | -6.43 | -11.2 | -2.82 | -3.84

Conditions | drug sensitivity score
DERL-7 (IL-2 2.5 ng/mL) [16] | 7.89
IMC-1 (IL-2 20 ng/mL) [17] | 26.7
KAI3 (IL-2 2.5 ng/mL) [18] | 25.6
KHYG-1 (IL-2 2.5 ng/mL) [19] | 29.8
NK-92 (IL-2 2.5 ng/mL) [20] | 24.3
NK-YS (IL-2 2.5 ng/mL) [21] | 27.5
NKL (IL-2 2.5 ng/mL) [22] | 16.1
SNK-6 (IL-2 2.5 ng/mL) [23] | 27.2
YT (IL-2 2.5 ng/mL) [24] | 20.5
[15] | 5.62
[25] | 0
[26] | 1.25
[27] | 0.89
[28] | 0.89

Nc1ccccc1NC(=O)c1ccc(CNc2nccc(-c3cccnc3)n2)cc1 [Mocetinostat] (max concentration tested 10000 nM)
percent inhibition of viability [%]
Conditions | 1 nM | 10 nM | 100 nM | 1000 nM | 10000 nM
DERL-7 (IL-2 2.5 ng/mL) [2] | -3.82 | -7.01 | -13.8 | 99.3 | 101
IMC-1 (IL-2 20 ng/mL) [3] | -6.53 | -6.19 | 4.71 | 98.2 | 101
KAI3 (IL-2 2.5 ng/mL) [4] | -5.2 | 1.15 | 22.6 | 77.3 | 104
KHYG-1 (IL-2 2.5 ng/mL) [5] | -6.09 | -6.23 | -4.57 | 100 | 105
NK-92 (IL-2 2.5 ng/mL) [6] | -18.8 | -10.3 | 8.7 | 99.6 | 105
NK-YS (IL-2 2.5 ng/mL) [7] | -9.56 | -10.2 | -10.2 | 71.5 | 102
NKL (IL-2 2.5 ng/mL) [8] | -8.5 | -7.5 | 22.2 | 98.2 | 106
SNK-6 (IL-2 2.5 ng/mL) [9] | -6.1 | -9.13 | 11.2 | 96.4 | 100
YT (IL-2 2.5 ng/mL) [10] | -3.42 | -2.92 | 3.45 | 48.2 | 104
[1] | -2.73 | -8.59 | -12.3 | 81.4 | 100
[11] | 0.77 | 13.7 | 15.1 | 47 | 90.7
[12] | 6.94 | 10 | 2.89 | 76.2 | 88.4
[13] | -2.61 | -1 | -6.41 | 66.8 | 94.1
[14] | -0.12 | -0.69 | 5.62 | 57.3 | 94.5

Conditions | drug sensitivity score
DERL-7 (IL-2 2.5 ng/mL) [16] | 17
IMC-1 (IL-2 20 ng/mL) [17] | 18.4
KAI3 (IL-2 2.5 ng/mL) [18] | 17.2
KHYG-1 (IL-2 2.5 ng/mL) [19] | 17.6
NK-92 (IL-2 2.5 ng/mL) [20] | 19.3
NK-YS (IL-2 2.5 ng/mL) [21] | 13.7
NKL (IL-2 2.5 ng/mL) [22] | 21.4
SNK-6 (IL-2 2.5 ng/mL) [23] | 19.4
YT (IL-2 2.5 ng/mL) [24] | 11.6
[15] | 14.8
[25] | 11.4
[26] | 14.3
[27] | 12.9
[28] | 12.2

N#CCNC(=O)c1ccc(-c2ccnc(Nc3ccc(N4CCOCC4)cc3)n2)cc1 [Momelotinib] (max concentration tested 10000 nM)
percent inhibition of viability [%]
Conditions | 1 nM | 10 nM | 100 nM | 1000 nM | 10000 nM
DERL-7 (IL-2 2.5 ng/mL) [2] | 3.73 | 4.25 | 15.9 | 75.2 | 100
IMC-1 (IL-2 20 ng/mL) [3] | -3.83 | -4.31 | -6.56 | 18.6 | 101
KAI3 (IL-2 2.5 ng/mL) [4] | 5.39 | 5.27 | 21.2 | 79.2 | 85.8
KHYG-1 (IL-2 2.5 ng/mL) [5] | -1.96 | -4.26 | 19.9 | 103 | 102
NK-92 (IL-2 2.5 ng/mL) [6] | -4.89 | 7.75 | 12.7 | 57.3 | 73.3
NK-YS (IL-2 2.5 ng/mL) [7] | -3.04 | -5.27 | 11.4 | 54.4 | 98.9
NKL (IL-2 2.5 ng/mL) [8] | -4.28 | -2.44 | 28.4 | 79.3 | 88
SNK-6 (IL-2 2.5 ng/mL) [9] | 23.1 | 10.8 | 3.39 | 52.2 | 96
YT (IL-2 2.5 ng/mL) [10] | -0.29 | -0.45 | 5.77 | 38.1 | 86.3
[1] | -1.5 | 4.78 | 16.6 | 72 | 96.9
[11] | -14.4 | -4.36 | 20.3 | 65.5 | 70.3
[12] | -6.11 | -14.1 | 3.47 | 15.8 | 14.3
[13] | -6.15 | -4.46 | 2.38 | 54.3 | 91.2
[14] | 0.52 | -6.13 | -0.97 | 43.2 | 86.9

Conditions | drug sensitivity score
DERL-7 (IL-2 2.5 ng/mL) [16] | 16
IMC-1 (IL-2 20 ng/mL) [17] | 8.56
KAI3 (IL-2 2.5 ng/mL) [18] | 17.1
KHYG-1 (IL-2 2.5 ng/mL) [19] | 21.2
NK-92 (IL-2 2.5 ng/mL) [20] | 12.3
NK-YS (IL-2 2.5 ng/mL) [21] | 12.2
NKL (IL-2 2.5 ng/mL) [22] | 18.1
SNK-6 (IL-2 2.5 ng/mL) [23] | 11.5
YT (IL-2 2.5 ng/mL) [24] | 9.23
[15] | 15.6
[25] | 14.8
[26] | 1.97
[27] | 11.5
[28] | 10.2
